Measured values from ChEMBL document CHEMBL1148834, “A novel diketo phosphonic acid that exhibits specific, strand-transfer inhibition of HIV integrase and anti-HIV activity” (Bioorg Med Chem Lett, 2007).

Columns and labels:
[1] = Therapeutic index, ratio of CC50 for PBMC to IC50 for HIV1 NL4-3; details: read-out: Ratio CC50/IC50
[2] = system: Human immunodeficiency virus 1; experiment: Antiviral activity against HIV1 NL4-3 in PBMC; type: functional, organism-based; details: Human immunodeficiency virus 1, NL4-3
[3] = Cytotoxicity against PBMC cells; type: cell-based; details: human
[4] = Therapeutic index, ratio of CC50 for PBMC to IC50 for HIV1 TEK1; details: read-out: Ratio CC50/IC50
[5] = system: Human immunodeficiency virus 1; experiment: Antiviral activity against HIV1 TEK1 in PBMC; type: functional, organism-based; details: Human immunodeficiency virus 1, TEK1
[6] = Inhibition of HIV integrase strand transfer activity by magnesium chloride-based assay; parameters: species or system Human immunodeficiency virus
[7] = Inhibition of HIV integrase 3'-processing activity by magnesium chloride-based assay; parameters: species or system Human immunodeficiency virus

IC50 [2] [µM]	IC50 [5] [µM]	IC50 [6] [µM]	IC50 [7] [µM]	Compound	selectivity ratio [1]	CC50 [3] [µM]	selectivity ratio [4]
11.8	8.1	–	–	O=C(/C=C(\O)P(=O)(O)O)c1cc(OCc2ccccc2)cc(OCc2ccccc2)c1	4	46.9	5.8
3.2	4	20.2	> 333	O=C(/C=C(\O)P(=O)(O)O)c1cn(Cc2ccccc2)c(=O)n(Cc2ccccc2)c1=O	> 62	> 200	> 50
